Test results from patent US11642344B2, “Cholesteryl ester transfer protein (CETP) inhibitor and pharmaceutical compositions comprising said inhibitor for use in the treatment or prevention of cardiovascular diseases” (NewAmsterdam Pharma B.V., priority 2014, dated 2023).
Like-named read-outs stand apart in the source and are kept apart here.

Columns and labels:
[1] = test system: HDL-C, LDL-C; settings: cited from earlier work
[2] = cited from earlier work; for mineralocorticoid activity: data from phase 2 studies; for off-target effects (in words): clinical trials
[3] = target: T1, CETP (Homo sapiens, UniProt P11597); experiment: In vitro CETP assay: 3H-labeled CE transfer from HDL to VLDL/LDL in human plasma; assay type: biochemical; settings: 24 h pre-incubation at 37° C.
T1 construct: from tissue; host or cells: plasma of Caucasian male subjects dosed with Compound A or placebo
T1 sequence (P11597 18-493): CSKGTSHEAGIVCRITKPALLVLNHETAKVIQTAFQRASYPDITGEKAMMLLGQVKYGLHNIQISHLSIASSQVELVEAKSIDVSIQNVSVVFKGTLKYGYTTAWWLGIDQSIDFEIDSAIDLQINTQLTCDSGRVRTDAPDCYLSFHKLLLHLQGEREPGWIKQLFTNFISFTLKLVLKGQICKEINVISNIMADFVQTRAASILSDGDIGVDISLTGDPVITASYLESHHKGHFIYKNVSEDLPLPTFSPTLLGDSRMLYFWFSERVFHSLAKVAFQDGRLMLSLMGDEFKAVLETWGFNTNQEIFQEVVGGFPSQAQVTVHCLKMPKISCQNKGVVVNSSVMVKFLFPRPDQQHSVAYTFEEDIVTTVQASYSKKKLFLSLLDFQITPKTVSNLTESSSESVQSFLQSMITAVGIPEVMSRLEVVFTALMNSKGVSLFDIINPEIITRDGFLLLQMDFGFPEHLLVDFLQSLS
Procedure: Human blood was obtained from healthy male volunteers using 0.1% EDTA as an anticoagulant, and centrifuged at 3,000 rpm for 15 minutes at 4° C. Human plasma was pooled, and then used for the preparation of ^3H-labeled HDL or stored at −80° C. for CETP assay until use. The ^3H-labeled HDL was prepared with human plasma as described by Glenn and Melton (Methods in enzymology. 263; 339-351, 1996). The specific gravity of plasma was measured by a hydrometer, and the density was adjusted to 1.125 g/mL by adding solid KBr. After centrifugation at 100,000 rpm for 4 hours at 12° C. (rotor: 100.4, Optima TLX, Beckman), d>1.125 g/mL fraction was dialyzed against 4 L of Tris-saline-EDTA buffer (TSE; 50 mmol/L Tris, 150 mmol/L NaCl, 2 mmol/L EDTA, pH7.4) for 18 hours at 4° C. [1,2-^3H(N)]-Cholesterol (37 MBq/mL) was added to the dialyzed plasma fraction at the amount of 2 μCi/mL. The tube was tightly sealed under N2 gas stream and incubated at 37° C. for 18 hours with gently stirring to allow esterification of radio-labeled cholesterol by endogenous LCAT. The incubated plasma fraction was adjusted to d=1.21 g/mL with solid KBr, and centrifuged at 100,000 rpm, 12° C. for 5 hours. ^3H-labeled HDL fraction was dialyzed against 2 L of TSE at 4° C. for 18 hours. The radioactivity of ^3H-labeled HDL was counted in a liquid scintillation counter. ^3H-labeled HDL was stored at 4° C. until use.
CETP activity was determined as the rate of ^3H-labeled CE transfer from donor HDL to acceptor VLDL/LDL. Human plasma (94 μL) was pre-incubated with compounds dissolved in DMSO (1 μL) 24 hours at 37° C., and then incubated for 4 hours at 4° C. or 37° C. with 5 μL of ^3H-labeled HDL. One hundred μL of phosphotungstate/MgCl2 reagent (Wako pure chemical) were added to precipitate apoB-containing lipoproteins. After centrifugation at 3,000 rpm for 10 minutes at room temperature, the radioactivity of the supernatant was counted in a liquid scintillation counter. […] The concentration achieving 50% inhibition of CETP activity (IC50) was estimated.

[4] = test system: CETP; experiment: Ex vivo serum CETP activity after oral administration to hamsters; design: species or system Syrian Golden hamsters; settings: 3 mg/kg oral, suspension in 0.5% CMC, serum 3 hours after administration
Procedure: Syrian Golden hamsters were used for the experiment after 1-week acclimatization. After an overnight fast, animals were orally given the compound suspension in 0.5% sodium carboxymethylcellulose in a volume of 10 mL/kg. Under deep anesthesia with ether, blood was collected from the abdominal aorta 3 hours after the administration. For preparation of serum, the collected blood was transferred to a plastic tube containing a clot activator, left still for 15 minutes at room temperature and centrifuged. Serum CETP activities were determined immediately.
Ninety-five μL serum were added to 5 μL of […] sodium phosphate buffered saline (pH 7.0) containing 1.5 mM 5,5′-dithio-bis(2-nitrobenzoic acid) in two 96-well V-bottom plates. One plate was incubated at 4° C. and the other was incubated at 37° C. After 18 hours of incubation, each sample was mixed with 100 μL of reagent for precipitation of apolipoprotein B-containing lipoproteins (phosphotungstate/MgCl2 reagent, Wako pure chemical), left still for 10 minutes at room temperature and centrifuged. Total cholesterol (TC) and free cholesterol (FC) in supernatant were measured using commercial kits (Cholesterol E-test wako, and Free Cholesterol E-test wako; Wako pure chemical). Cholesteryl ester (CE) was calculated by subtracting FC from TC. CETP activity was determined by the following formula: CETP activity=[CETP transfer]*/[CE value in 4° C. incubation sample] *CETP transfer=[CE value in 4° C. incubation sample]−[CE value in 37° C. incubation sample] (c) Results

[5] = 200 mg once daily, fasted healthy subjects
[6] = 500 mg once daily monotherapy in patients

COc1cc(F)c(C(C)C)cc1-c1ccc(C(F)(F)F)cc1CN1C(=O)O[C@H](c2cc(C(F)(F)F)cc(C(F)(F)F)c2)[C@@H]1C [Anacetrapib, anacetrapib]
decrease LDL-C ([1]; 150 mg once daily, patients): 40%
increase HDL C ([1]; 150 mg once daily, patients): 139%
decrease LDL-C [1, 5]: 36%
increase HDL C [1, 5]: 97%
mineralocorticoid activity [2]: without mineralocorticoid activity

CCC(CC)CC1(C(=O)Nc2ccccc2SC(=O)C(C)C)CCCCC1 [Dalcetrapib, dalcetrapib]
effects on LDL-C concentrations ([1]; phase 2b clinical trials): minimal effects
increase HDL-C ([1]; phase 2b clinical trials): 30-40%
off-target effects (in words) [2]: did not appear to exhibit the off-target effects of torcetrapib

Cc1cc(C)c2c(c1)[C@@H](N(Cc1cc(C(F)(F)F)cc(C(F)(F)F)c1)c1nnn(C)n1)CCCN2C[C@H]1CC[C@H](C(=O)O)CC1 [Evacetrapib, evacetrapib]
decrease LDL-C [1, 6]: 36%
increase HDL-C [1, 6]: 129%
mineralocorticoid activity [2]: without mineralocorticoid activity

CCOC(=O)N1c2ccc(C(F)(F)F)cc2[C@@H](N(Cc2cc(C(F)(F)F)cc(C(F)(F)F)c2)C(=O)OC)C[C@H]1CC [Torcetrapib, torcetrapib]
decrease LDL-C ([1]; dosed at 60 mg, phase 3): 25%
increase HDL-C ([1]; dosed at 60 mg, phase 3): 72%
off-target effects (in words) [2]: increased blood pressure, changes in electrolytes
cardiovascular events and death ([2]; in combination with atorvastatin, compared with atorvastatin alone): unexpected increase in cardiovascular events and death

CCOC(=O)N1c2ccc(C(F)(F)F)cc2C(N(Cc2cc(C(F)(F)F)cc(C(F)(F)F)c2)c2ncc(OCc3ccc(C(=O)O)cc3)cn2)CC1CC (stereo not drawn) [compound 1]
IC50 [3]: 0.21 µM
ex vivo (% inhibition) 3 mg/kg (CMC) [4]: 57.5%

CCOC(=O)N1c2ccc(C(F)(F)F)cc2[C@@H](N(Cc2cc(C(F)(F)F)cc(C(F)(F)F)c2)c2ncc(OCc3cccc(C(=O)O)c3)cn2)C[C@H]1CC [compound 2]
IC50 [3]: 0.23 µM
ex vivo (% inhibition) 3 mg/kg (CMC) [4]: 38.4%

CCOC(=O)N1c2ccc(C(F)(F)F)cc2C(N(Cc2cc(C(F)(F)F)cc(C(F)(F)F)c2)c2ncc(OCC(=O)NCC(=O)O)cn2)CC1CC (stereo not drawn) [compound 3]
IC50 [3]: 0.45 µM
ex vivo (% inhibition) 3 mg/kg (CMC) [4]: 5.4%

CCOC(=O)N1c2ccc(C(F)(F)F)cc2C(N(Cc2cc(C(F)(F)F)cc(C(F)(F)F)c2)c2ncc(OCC(=O)N(C)CC(=O)O)cn2)CC1CC (stereo not drawn) [compound 4]
IC50 [3]: 0.79 µM
ex vivo (% inhibition) 3 mg/kg (CMC) [4]: 8.6%

CCOC(=O)N1c2ccc(C(F)(F)F)cc2C(N(Cc2cc(C(F)(F)F)cc(C(F)(F)F)c2)c2ncc(OCC(=O)N3CCCC3C(=O)O)cn2)CC1CC (stereo not drawn) [compound 5]
IC50 [3]: 1.7 µM
ex vivo (% inhibition) 3 mg/kg (CMC) [4]: 6.2%

CCOC(=O)N1c2ccc(C(F)(F)F)cc2C(N(Cc2cc(C(F)(F)F)cc(C(F)(F)F)c2)c2ncc(S(=O)(=O)CCCC(=O)O)cn2)CC1CC (stereo not drawn) [compound 6]
IC50 [3]: 0.22 µM
ex vivo (% inhibition) 3 mg/kg (CMC) [4]: 13.9%
